Laboratory results as given in patent US20250179059A1 (The Regents of the University of California, priority 2021, published 2025).

Legend:
[1] = target: T1, human BRD4 bromodomain II (Homo sapiens, UniProt O60885); assay: Bromodomain binding assay (AlphaScreen), BRD4 BDII; conditions: BRD4 BDII AlphaScreen assay; read-out: BRD4 BD2 IC50
T1 construct: human BRD4 bromodomain II [based on Genbank NM_058243, residues 349-460]; host or cells: E. coli
In short: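 AlphaScreen competition: His6-BRD4 BDI (aa 44-170) or BDII (aa 349-460) vs biotin-H4(1-21) K5/K8/K12/K16Ac peptide; Ni-chelate acceptor/streptavidin donor beads. HEPES pH 7.5, NaCl, CHAPS, BSA, 1% DMSO; RT. 10-pt 3-fold titration, % peptide binding fitted → IC50.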

[2] = test system: human SKM-1 acute myeloid leukemia cells; assay: SKM-1 antiproliferation cell-based assay (ATPlite)
In short: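 Log-phase cells in RPMI 1640/15% FBS were seeded at 34722 cells/mL and exposed for 4 days to nine-concentration DMSO serial dilutions in triplicate. Viability was read as ATP luminescence (ATPlite 1step), and IC50 values came from variable-slope non-linear regression.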

[3] = Homo sapiens, SKM-1, SKM-1 antiproliferation assay

Structure (SMILES) | IC50 [1] [nM] | GI50 [2, 3] [nM] | GI50 ([2]; SKM-1 antiproliferation assay) [nM]
Cn1ccn(-c2ccc(-c3cc(F)cc(-c4cccc(-c5ccc(N)cc5)c4)c3O)cc2Cl)c1=O [Example 855] | 10 to 100 | 30 to 300 | –
Cn1ccn(-c2ccc(-c3cc(F)cc(-c4cccc(-c5ccc(O)cc5)c4)c3O)cc2Cl)c1=O [Example 857] | 10 to 100 | 300 to 3000 | –
Cn1ccn(-c2ccc(-c3cc(F)cc(-c4cccc(-c5ccc(CO)cc5)c4)c3O)cc2Cl)c1=O [Example 858] | 10 to 100 | 300 to 3000 | –
COc1c(-c2cccc(N3CCN(C(C)(C)C)CC3)c2)cc(F)cc1-c1ccc(-n2ccn(C)c2=O)c(Cl)c1 [Example 859] | 10 to 100 | 30 to 300 | –
COc1ncc(-c2cc(F)cc(-c3ccc(-n4ccn(C)c4=O)c(Cl)c3)c2OC(C)=O)cc1N1CCN(C(C)C)CC1 [Example 860] | > 100 | 0.3 to 30 | –
Cn1ccn(-c2ccc(-c3cc(F)cc(-c4cccc(-c5cccc(N)c5)c4)c3O)cc2Cl)c1=O [Example 862] | 10 to 100 | 300 to 3000 | –
Cn1ccn(-c2ccc(-c3cc(F)cc(-c4cccc(-c5ccc(CN)cc5)c4)c3O)cc2Cl)c1=O [Example 863] | 10 to 100 | 300 to 3000 | –
Cn1ccn(-c2ccc(-c3cc(F)cc(-c4cccc(-c5cccc(O)c5)c4)c3O)cc2Cl)c1=O [Example 864] | 10 to 100 | 300 to 3000 | –
Cn1ccn(-c2ccc(-c3cc(F)cc(-c4cccc(-c5cccc(CO)c5)c4)c3O)cc2Cl)c1=O [Example 865] | 10 to 100 | 300 to 3000 | –
Cn1ccn(-c2ccc(-c3cc(F)cc(-c4cccc(-c5cccc(CN)c5)c4)c3O)cc2Cl)c1=O [Example 866] | 10 to 100 | 300 to 3000 | –
COC(=O)Oc1c(-c2ccc(-n3ccn(C)c3=O)c(Cl)c2)cc(F)cc1-c1cnc(C)c(N2CCN(C(C)C)CC2)c1 [Example 877] | > 100 | 0.3 to 30 | –
COC(=O)OCOc1c(-c2ccc(-n3ccn(C)c3=O)c(Cl)c2)cc(F)cc1-c1cnc(C)c(N2CCN(C(C)C)CC2)c1 [Example 878] | > 100 | 0.3 to 30 | –
CC(=O)Nc1cnc(-c2cc(F)cc(-c3cccc(N4CCN(C(C)(C)C)CC4)c3)c2O)cn1 [Example 887] | > 100 | 300 to 3000 | –
CC(=O)Nc1cccc(-c2cc(F)cc(-c3cccc(N4CCNCC4)c3)c2O)c1Cl [Example 888] | > 100 | 300 to 3000 | –
Cn1ccn(-c2ccc(-c3cc(F)cc(-c4ccccc4CN4CCNCC4)c3O)cc2Cl)c1=O [Example 889] | > 100 | 300 to 3000 | –
Cc1ncc(-c2cc(F)cc(-c3ccc(-n4ccn(C)c4=O)c(Cl)c3)c2O)cc1N1CCC2(CCN2C(C)C)C1 (stereo not drawn) [Example 891] | 1 to 10 | 0.3 to 30 | –
CC(C)N1CCC12CCN(c1cccc(-c3cc(F)cc(-c4ccc(-n5ccn(C)c5=O)c(Cl)c4)c3O)c1)C2 (stereo not drawn) [Example 892] | 1 to 10 | 0.3 to 30 | –
CC(=O)Nc1cccc(-c2cc(F)cc(-c3cccc(N4CCC(C)(O)C4)c3)c2O)c1Cl (stereo not drawn) [Example 893] | > 100 | 300 to 3000 | –
CC(=O)Nc1cnc(-c2cc(F)cc(-c3cccc(N4CCN(C(C)(C)C)CC4)c3)c2O)nc1 [Example 894] | > 100 | 300 to 3000 | –
Cn1ccn(-c2ccc(-c3cc(F)cc(-c4ccnc(N5CCC(C)(NCC(F)(F)F)C5)c4)c3O)cc2Cl)c1=O (stereo not drawn) [Example 895] | 1 to 10 | 30 to 300 | –
CC(=O)Nc1ccc(-c2cc(F)cc(-c3cccc(N4CCN(C(C)(C)C)CC4)c3)c2O)nn1 [Example 896] | > 100 | 300 to 3000 | –
Cc1ncc(-c2cc(F)cc(-c3ccc(-n4ccn(C)c4=O)c(Cl)c3)c2O)cc1N1CC(F)(F)[C@@](C)(O)C1 [Example 897] | 1 to 10 | 30 to 300 | –
Cc1ncc(-c2cc(F)cc(-c3ccc(-n4ccn(C)c4=O)c(Cl)c3)c2O)cc1N1CC(F)(F)[C@](C)(O)C1 [Example 898] | 1 to 10 | 30 to 300 | –
COc1ncc(-c2cc(F)cc(-c3ccc(-n4ccn(C)c4=O)c(Cl)c3)c2O)cc1N1CC(F)(F)[C@@](C)(O)C1 [Example 899] | 1 to 10 | 300 to 3000 | –

Next, values leading:

IC50 [1] [nM] | GI50 [2, 3] [nM] | GI50 ([2]; SKM-1 antiproliferation assay) [nM] | Structure (SMILES)
1 to 10 | 0.3 to 30 | – | COCC(C)(C)N1CCN(c2cc(-c3cc(F)cc(-c4ccc(-n5ccn(C)c5=O)c(Cl)c4)c3O)cnc2OC)CC1 [Example 850, 1-(3-Chloro-5′-fluoro-2′-hydroxy-3′-(6-methoxy-5-(4-(1-methoxy-2-methylpropan-2-yl)piperazin-1-yl)pyridin-3-yl)-[1,1′-biphenyl]-4-yl)-3-methyl-1H-imidazol-2(3H)-one]
1 to 10 | 30 to 300 | – | Cn1ccn(-c2ccc(-c3cc(F)cc(-c4cccc(N5CCCN(C(C)(C)C)CC5)c4)c3O)cc2Cl)c1=O [Example 851, 1-(3″-(4-(tert-Butyl)-1,4-diazepan-1-yl)-3-chloro-5′-fluoro-2′-hydroxy-[1,1′:3′,1″-terphenyl]-4-yl)-3-methyl-1H-imidazol-2(3H)-one]
0.01 to 1 | 0.3 to 30 | – | CCc1ncc(-c2cc(F)cc(-c3ccc(-n4ccn(C)c4=O)c(Cl)c3)c2O)cc1N1CC[C@@](C)(O)C1 [Example 852, (R)-1-(3-Chloro-3′-(6-ethyl-5-(3-hydroxy-3-methylpyrrolidin-1-yl)pyridin-3-yl)-5′-fluoro-2′-hydroxy-[1,1′-biphenyl]-4-yl)-3-methyl-1H-imidazol-2(3H)-one]
0.01 to 1 | 0.3 to 30 | – | COc1ncc(-c2cc(F)cc(-c3ccc(-n4ccn(C)c4=O)c(Cl)c3)c2O)cc1N1CCCN(C(C)(C)C)CC1 [Example 853, 1-(3′-(5-(4-(tert-Butyl)-1,4-diazepan-1-yl)-6-methoxypyridin-3-yl)-3-chloro-5′-fluoro-2′-hydroxy-[1,1′-biphenyl]-4-yl)-3-methyl-1H-imidazol-2(3H)-one]
1 to 10 | 30 to 300 | – | Cc1ccc(-c2cc(F)cc(-c3ccc(-n4ccn(C)c4=O)c(Cl)c3)c2O)cc1N1CC(C)(O)C2(CC2)C1 (stereo not drawn) [Example 854, 1-(3-Chloro-5′-fluoro-2′-hydroxy-338-(7-hydroxy-7-methyl-5-azaspiro[2.4]heptan-5-yl)-4″-methyl-[1,1′:3′,1″-terphenyl]-4-yl)-3-methyl-1H-imidazol-2(3H)-one]
1 to 10 | 0.3 to 30 | – | COCC(C)(C)N1CCN(c2cc(-c3cc(F)cc(-c4ccc(-n5ccn(C)c5=O)c(Cl)c4)c3O)cnc2C)CC1 [Example 856]
1 to 10 | 0.3 to 30 | – | Cn1ccn(-c2ccc(-c3cc(F)cc(-c4ccnc(N5CC(C)(O)C(F)(F)C5)c4)c3O)cc2Cl)c1=O (stereo not drawn) [Example 861]
1 to 10 | 30 to 300 | – | Cn1ccn(-c2ccc(-c3cc(F)cc(-c4cccc(N5CCN(C6CCOC6)CC5)c4)c3O)cc2Cl)c1=O (stereo not drawn) [Example 867]
1 to 10 | 0.3 to 30 | – | Cn1ccn(-c2ccc(-c3cc(F)cc(-c4cccc(N5CCN(C6CCC6)CC5)c4)c3O)cc2Cl)c1=O [Example 868]
1 to 10 | 0.3 to 30 | – | COc1ncc(-c2cc(F)cc(-c3ccc(-n4ccn(C)c4=O)c(Cl)c3)c2O)cc1N1CCN(C2CCOC2)CC1 (stereo not drawn) [Example 869]
1 to 10 | 300 to 3000 | – | Cn1ccn(-c2ccc(-c3cc(F)cc(-c4ccccc4N4CCNCC4)c3O)cc2Cl)c1=O [Example 870]
1 to 10 | 30 to 300 | – | COc1ncc(-c2cc(F)cc(-c3ccc(-n4ccn(C)c4=O)c(Cl)c3)c2O)cc1N1CC(C)(C)[C@](C)(O)C1 [Example 871]
0.01 to 1 | 30 to 300 | – | COc1ncc(-c2cc(F)cc(-c3ccc(-n4ccn(C)c4=O)c(Cl)c3)c2O)cc1N1CC(C)(C)[C@@](C)(O)C1 [Example 872]
0.01 to 1 | 0.3 to 30 | – | Cc1ncc(-c2cc(F)cc(-c3ccc(-n4ccn(C)c4=O)c(Cl)c3)c2O)cc1N1CC2(CC2)[C@](C)(O)C1 [Example 873]
0.01 to 1 | 0.3 to 30 | – | COc1ncc(-c2cc(F)cc(-c3ccc(-n4ccn(C)c4=O)c(Cl)c3)c2O)cc1N1CC2(CC2)[C@](C)(O)C1 [Example 875]
1 to 10 | 0.3 to 30 | – | COc1ncc(-c2cc(F)cc(-c3ccc(-n4ccn(C)c4=O)c(Cl)c3)c2O)cc1N1CCC2(CCN2C(C)C)C1 (stereo not drawn) [Example 879]
0.01 to 1 | 0.3 to 30 | – | COc1ncc(-c2cc(F)cc(-c3ccc(-n4ccn(C)c4=O)c(Cl)c3)c2O)cc1N1CCN(C2CCC2)CC1 [Example 880]
0.01 to 1 | – | 30 to 300 | Cn1ccn(-c2ccc(-c3cc(F)cc(-c4ccnc(N5CC(F)(F)[C@@](C)(O)C5)c4)c3O)cc2Cl)c1=O [Example 881]
1 to 10 | – | 0.3 to 30 | Cn1ccn(-c2ccc(-c3cc(F)cc(-c4ccnc(N5CC(F)(F)[C@@](C)(O)C5)c4)c3O)cc2Cl)c1=O [Example 882]
1 to 10 | 0.3 to 30 | – | Cc1ncc(-c2cc(F)cc(-c3ccc(-n4ccn(C)c4=O)c(Cl)c3)c2O)cc1N1CCN(C2CCC2)CC1 [Example 883]
1 to 10 | 30 to 300 | – | Cc1ncc(-c2cc(F)cc(-c3ccc(-n4ccn(C)c4=O)c(Cl)c3)c2O)cc1N1CC(C)(C)[C@](C)(O)C1 [Example 884]
1 to 10 | 30 to 300 | – | Cc1ncc(-c2cc(F)cc(-c3ccc(-n4ccn(C)c4=O)c(Cl)c3)c2O)cc1N1CC(C)(C)[C@@](C)(O)C1 [Example 885]
1 to 10 | 0.3 to 30 | – | [2H]C([2H])([2H])n1ccn(-c2ccc(-c3cc(F)cc(-c4cccc(N5CCN(C(C)(C)C)CC5)c4)c3O)cc2Cl)c1=O [Example 886]
1 to 10 | 0.3 to 30 | – | Cc1ncc(-c2cc(F)cc(-c3ccc(-n4ccn(C)c4=O)c(Cl)c3)c2O)cc1N1CCN(C2CCOC2)CC1 (stereo not drawn) [Example 890]
